This note sets out measurements from patent US20250290142A1, “DETECTING OXIDATIVE STRESS IN CELL(S) USING EPIGENETIC MEANS” (Evonik Operations GmbH, priority 2022, published 2025).

The assay deals with T-Skin models (reconstructed human skin). The conditions noted are these: maintained 24 hrs.

Protocol: T-Skin models were obtained from Episkin SA, France which is composed of reconstructed human skin. Each skin model consists of a dermal equivalent overlaid by a stratified, well-differentiated epidermis derived from normal human keratinocytes. Upon receiving the skin models, it was recovered by incubating in T-Skin culture medium overnight at 37° C. in a 5% CO2 incubator.
The genomic DNA (500 ng) from tissue samples were subjected to bisulfite conversion using the EZ DNA Methylation-Gold™ Kit (Zymo Research). The methylation levels were quantified using Infinium MethylationEPIC v2.0 Kit (Illumina) which can analyze over 850,000 methylation sites quantitatively across the genome at single-nucleotide resolution.
Quality check on samples was performed to keep probes that have a detection P-value <0.01 in one or more samples or have a mean detection P-value <0.05 in all samples. […]
Prior to differential methylation analysis, the probes with non-specific binding, cross reactive probes, probes affected by common SNPs, and probes annotated to the X, Y chromosomes were also filtered out. Beta-value and M-value of normalized and filtered samples were calculated using getBeta and getM function respectively, the samples were then subjected to further downstream analysis. […]

As for `OO` [H2O2, Hydrogen peroxide], the “methylation status of probes vs cells without OS (FIG. 4A)” value (high H2O2 (200 μM) for 2 hrs) is given as “large number of probes that are hypomethylated”. For the setting “low H2O2 (100 μM) for 2 hrs”, the “methylation status of probes vs cells without OS (FIG. 3A)” value is “large number of probes that are hypomethylated”.
